From EP0306300B1, “Pyrrolo(1,2-a)imidazole and imidazo(1,2-a)pyridine derivatives and their use as 5-lipoxygenase pathway inhibitors” (SMITHKLINE BEECHAM CORPORATION, priority 1987, dated 1989)
Entries after “also recorded” stand apart in the source; their conditions may differ. Read-outs that look alike come from different tables or passages of the source.

Columns and labels:
[1] = Log D determination by high pressure liquid chromatography; assay type: physicochemical; details: hplc ods, mobile phase MeOH:H2O, pH 7.4, read-out: (Log D) (Lipophilicity)
Description: The procedure used to determine the log D's listed on Table VI was as follows. A 20 »l sample was injected into a Shandon Hypersil ODS, 5» (100 mm x 4.6 mm ID) column and was eluted using a mobile phase of […] MeOH:H₂O (The aqueous portion was .01 M in KH₂PO₄ and adjusted to pH 7.4 with KOH after mixing the MeOH), at a flow rate of 2 ml per minute. Eluting peaks were detected by UV absorbance at […]. All samples were made up at 0.1 mg/ml. (Retentions were identical at 0.01 mg/ml.)
The data was analyzed by determining the regression line corresponding to the log k′ vs. literature log P of the reference standards.
The reference standards and their literature log P's included NaNO₂, 0.0; acetanalide, 1.16; acetophenone, 1.66; anisole, 2.08; chlorobenzene, 2.84; benzophenone, 3.18; anthracene, 4.45; and pentachlorobenzene, 5.12.

cynomolgus monkeys = assay: CNS activity / oral toxicity in cynomolgus monkeys; details: cynomolgus monkey, in vivo
Description: Additional monkeys tolerated repeated doses of 45 mg/kg or 30 mg/kg and one animal tolerated an escalating dose schedule of 30-90-120 mg/kg.
The two monkeys administered 400 mg/kg were repeatedly administered this dose for 7 consecutive days; each animal experienced emesis within 1 to 5 hours of dosing after the 1st, 3rd and 4th doses, whereas only the female experienced emesis after the 5th, 6th and 7th doses. A complete necropsy, serum clinical chemistry, hematology and histological examination was completed on both monkeys.

[2] = Cytochrome P-450 inhibition (ethoxycoumarin-O-deethylase activity, phenobarbital-induced microsomes); details: rat
[3] = system: arachidonic acid-induced edema in mice; assay: Arachidonic acid-induced mouse ear inflammation (ear swelling); assay type: in vivo, male Balb/c mice; details: 1 h, 50 mg/kg s.c. or i.p., ear thickness one hour after 2 mg arachidonic acid
5-Lipoxygenase = biological target: T1, 5-Lipoxygenase (Rattus norvegicus, UniProt P12527); assay: Assay of 5-lipoxygenase activity in RBL-1 high speed supernatant; assay type: biochemical; details: read-out: 5-LO IC50
T1 construct: the supernatant was centrifuged at 100,000 x g for 60 min; host or cells: RBL-1 cells (soluble cell extract, high-speed supernatant)
T1 sequence (P12527 1-673): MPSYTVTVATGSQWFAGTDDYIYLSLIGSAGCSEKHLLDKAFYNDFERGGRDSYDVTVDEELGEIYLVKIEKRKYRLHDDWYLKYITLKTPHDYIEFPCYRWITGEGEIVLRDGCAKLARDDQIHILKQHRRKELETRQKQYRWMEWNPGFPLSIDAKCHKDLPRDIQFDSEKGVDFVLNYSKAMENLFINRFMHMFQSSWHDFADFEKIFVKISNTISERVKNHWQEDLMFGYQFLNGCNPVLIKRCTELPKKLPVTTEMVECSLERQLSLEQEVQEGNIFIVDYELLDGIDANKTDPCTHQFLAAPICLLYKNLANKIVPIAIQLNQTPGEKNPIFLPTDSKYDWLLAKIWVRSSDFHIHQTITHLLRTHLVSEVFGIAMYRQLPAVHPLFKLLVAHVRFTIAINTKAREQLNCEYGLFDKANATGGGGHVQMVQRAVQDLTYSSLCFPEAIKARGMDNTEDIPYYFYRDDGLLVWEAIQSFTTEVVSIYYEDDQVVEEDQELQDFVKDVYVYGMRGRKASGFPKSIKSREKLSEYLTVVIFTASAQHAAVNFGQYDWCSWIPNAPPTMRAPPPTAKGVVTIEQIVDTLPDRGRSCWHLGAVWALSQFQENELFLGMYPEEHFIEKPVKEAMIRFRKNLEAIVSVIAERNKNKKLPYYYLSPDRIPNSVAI
Description: For in vitro experiments, compounds were dissolved at appropriate concentrations in ethanol (final concentration 1.0%) and then diluted to final concentrations using the buffers indicated in the text.
The activities of these enzymes in extracts of RBL-1 cells were assayed using the method of Jakschik and Lee, Nature, 287, 51-52 (1980). RBL-1 cells were obtained from the American Type Culture Collection (#CRL 1378) and were grown at 37°C (5% CO₂ in air) in spinner culture in MEM supplemented with 10% heat inactivated fetal calf serum. Harvested cells were washed with 50 mM sodium phosphate buffer, pH 7.0, containing 1 mM EDTA and 0.1% gelatin, resuspended in fresh buffer (5 x 10⁷ cells/ml) and disrupted by nitrogen cavitation using the Parr bomb at 750 psi for 10 min. The broken cell extract was then centrifuged at 10,000 x g for 20 minutes (min) and the supernatant was centrifuged at 100,000 x g for 60 min. Aliquots (0.25 mls) of the supernatant were preincubated with or without drugs for 10 min, after which 10 ul CaCl₂ (2 mM) was added and the reaction was initiated with 2.5 »l of 2.5 mM arachidonic acid-1-¹⁴C (final concentration was 25 »M; specific activity 20,000 dpm/nmole). After incubation for 5 minutes at 37°C, the reaction was terminated by addition of 2 volumes (0.5 ml) ice cold acetone and the sample was allowed to deproteinize on ice for 10 minutes prior to centrifugation at 1,000 x g for 10 minutes. The deproteinized supernatant was adjusted to pH 3.5 with 2N formic acid and extracted with 2 volumes of ice cold ethyl acetate. The extracted samples were dried under argon, redissolved in ethyl acetate and applied to Whatman LK5D thin layer chromatography (TLC) plates which were developed using the A-9 solvent system [organic phase of ethyl acetate: […]:acetic acid: water (110:50:20:10)] described by Hamberg and Samuelsson, J. Biol. Chem., 241, 257-263 (1966). Arachidonic acid, 5-HETE, LTB₄ and PGD₂ were quantified with a Berthold LB 2832 autoscanner.
Under these conditions, only the 5-lipoxygenase pathway metabolites were detectable. The 5-HETE and di-HETEs were formed at a linear rate, and […] amounts of the arachidonic acid-1-¹⁴C substrate were utilized.

[4] = system: arachidonic acid-induced edema in mice; assay: Arachidonic acid-induced mouse ear inflammation (ear swelling); assay type: in vivo, male Balb/c mice; details: for inhibition at 50 mg/kg: Mus musculus, po, 1 h, 50 mg/kg p.o., ear thickness one hour after 2 mg arachidonic acid; for antiinflammatory activity: p.o.
Description: In the tests used to determine activity as 5-lipoxygenase pathway inhibitors, male Balb/c mice (20-28 g), were used. All mice were obtained from Charles River Breeding Laboratories, Kingston, N.Y. Within a single experiment, mice were age matched.
Reagents were employed as follows: Compounds of Formula (I) were each used as the free base. The compounds were homogenized in 0.5% tragacanth. Compounds were administered by […] at the indicated dose in a final volume of 10 ml/kg.
Arachidonic acid in acetone (2 mg/20 »l) was applied to the inner surface of the left ear. The thickness of both ears was then measured with a dial micrometer one hour after treatment, and the data were expressed as the change in thickness (10⁻³ cm) between treated and untreated ears.
Test compounds were given orally in acid/saline at the times indicated in the text prior to the topical application of arachidonic acid.
Dermatol., 82, 367-371 (1984)].

[5] = LTB4 production by RBL-1 high speed supernatant
[6] = total HETE and Di-HETE production by RBL-1 high speed supernatant

Structure (SMILES) | inhibition at 50 mg/kg [3] | inhibition at 50 mg/kg [4] | also measured
[O-][S+]1CCn2c1nc(-c1ccc(F)cc1)c2-c1ccncc1 (stereo not shown) [B, 5-(4-pyridyl)-6-(4-fluorophenyl)-2,3-dihydroimidazo [2,1-b]thiazole oxide, reference compound] | – | – | chromatographic logD [1]: 1.2; CNS toxicity / adverse CNS effects (comparative statement) (cynomolgus monkeys): reduced CNS toxicity; IC50 ([2]; liver microsomes): 5 µM
CS(=O)(=O)c1ccc(-c2nc3n(c2-c2ccncc2)CCC3)cc1 [Compound 3, 2-(4-Methylsulfonylphenyl)-3-(4-pyridyl)-6.7-dihydro-[5H]-pyrrolo[1,2-a]imidazole] | 3% | – | IC50 (5-Lipoxygenase; [5]): > 100 µM; IC50 ([2]; microsomes): > 100 µM
COc1ccc(-c2nc3n(c2-c2ccccn2)CCC3)cc1 [Compound 4] | 29% | – | IC50 (5-Lipoxygenase; [5]): > 100 µM
COc1ccc(-c2nc3n(c2-c2cccnc2)CCC3)cc1 [Compound 5] | 34% | – | IC50 ([2]; microsomes): > 100 µM
Oc1ccc(-c2nc3n(c2-c2ccncc2)CCC3)cc1 [Compound 7] | – | 27% | IC50 (5-Lipoxygenase; [5]): 17 µM
CCOc1ccc(-c2nc3n(c2-c2ccncc2)CCC3)cc1 [Compound 8] | – | 62% | IC50 (5-Lipoxygenase; [5]): 6 µM
CCCOc1ccc(-c2nc3n(c2-c2ccncc2)CCC3)cc1 [Compound 9] | – | 42% | IC50 (5-Lipoxygenase; [5]): 3.5 µM; IC50 (5-Lipoxygenase; [6]): 8 µM
CC(C)Oc1ccc(-c2nc3n(c2-c2ccncc2)CCC3)cc1 [Compound 10] | – | 43% | IC50 ([2]; microsomes): 2.5 µM
CC(=O)Sc1ccc(-c2nc3n(c2-c2ccncc2)CCC3)cc1 [Compound 11, 2-(4-Acetylthiophenyl)-3-(4-pyridyl)-6,7-dihydro-[5H]-pyrrolo[1,2-a]imidazole] | – | 46% | IC50 (5-Lipoxygenase; [6]): 25 µM
CC(C)(C)C(=O)Sc1ccc(-c2nc3n(c2-c2ccncc2)CCC3)cc1 [Compound 12, 2-(4-Trimethylacetylthiophenyl)-3-(4-pyridyl)-6,7-dihydro-[5H]-pyrrolo[1,2-a]imidazole] | – | 45% | IC50 (5-Lipoxygenase; [6]): 6 µM
CC(=O)OCSc1ccc(-c2nc3n(c2-c2ccncc2)CCC3)cc1 [Compound 13, 2-(4-Acetoxymethylthiophenyl)-3-(4-pyridyl)-6,7-dihydro-[5H]-pyrrolo[1,2-a]imidazole] | – | 51% | IC50 (5-Lipoxygenase; [6]): 47 µM
CCSc1ccc(-c2nc3n(c2-c2ccncc2)CCC3)cc1 [Compound 14, 2-(4-Ethylthiophenyl)-3-(4-pyridyl)-6,7-dihydro-[5H]-pyrrolo[1,2-a]imidazole] | – | 56% | IC50 (5-Lipoxygenase; [6]): 30 µM; IC50 ([2]; liver microsomes): 28.1 µM
CC[S+]([O-])c1ccc(-c2nc3n(c2-c2ccncc2)CCC3)cc1 (stereo not shown) [Compound 15, 2-(4-Ethylsulfinylphenyl)-3-(4-pyridyl)-6,7-dihydro-[5H]-pyrrolo[1,2-a]imidazole] | – | 41% | IC50 (5-Lipoxygenase; [6]): > 100 µM; IC50 ([2]; liver microsomes): > 100 µM
CCOC(=O)CSc1ccc(-c2nc3n(c2-c2ccncc2)CCC3)cc1 [Compound 16, 2-(4-Carbethoxymethylthiophenyl)-3-(4-pyridyl)-6,7-dihydro-[5H]-pyrrolo[1,2-a]imidazole] | 15% | – | IC50 (5-Lipoxygenase; [6]): 50 µM
c1cc(-c2cn3c(n2)CCC3)ccn1 [Compound 17] | 41% | 20% | –
CSc1ccc(-c2c(-c3ccncc3)nc3n2CCC3)cc1 [Compound 18] | 32% | 28% | –
C[S+]([O-])c1ccc(-c2c(-c3ccncc3)nc3n2CCC3)cc1 (stereo not shown) [Compound 19] | 56% | 52% | –
CSc1ccc(-c2nc3n(c2-c2ccnc(C)c2)CCC3)cc1 [Compound 20, 2-(4-Methylthiophenyl)-3-[4-(2-methyl)pyridyl]-6,7-dihydro-[5H]-pyrrolo[1,2,a]imidazole] | 59% | 59% | –
Cc1cc(-c2c(-c3ccc([S+](C)[O-])cc3)nc3n2CCC3)ccn1 (stereo not shown) [Compound 21, 2-(4-Methylsulfinylphenyl)-3-[4-(2-methyl)pyridyl]-6,7-dihydro-[5H]-pyrrolo[1,2-]imidazole] | 14% | 59% | –
COc1ccc(-c2nc3n(c2-c2ccnc(C)c2)CCC3)cc1 [Compound 22, 2-(4-methoxyphenyl)-3-[4-(2-methyl)pyridyl]-6,7-dihydro-[5H]-pyrrolo[1,2-a]imidazole] | 57% | 56% | –
COc1ccc(-c2nc3n(c2-c2ccnc(C)c2)CCC3)cc1 [Compound 23] | – | – | IC50 ([2]; liver microsomes): 56.6 µM
CC(C)Cc1ccc(C(C)C(=O)O)cc1 (stereo not shown) [ibuprofen, reference compound] | – | – | antiinflammatory activity ([4]; 250 mg/kg): do not exhibit detectable antiinflammatory activity
COc1ccc2c(c1)c(CC(=O)O)c(C)n2C(=O)c1ccc(Cl)cc1 [indomethacin, reference compound] | – | – | antiinflammatory activity ([4]; 10 mg/kg): did not reduce inflammation; also recorded: do not exhibit detectable antiinflammatory activity
COc1ccc2cc([C@H](C)C(=O)O)ccc2c1 [naproxen, reference compound] | – | – | antiinflammatory activity ([4]; 100 mg/kg): do not exhibit detectable antiinflammatory activity
